Data: patent publication US20040014024A1, “Screening assay for antagonists of FGFR-mediated malignant cell transformation and tumor formation” (priority 1999, published 2004)

Test system: RCJ cells
Test: Tumor formation in nude mice injected with RCJ cells, doxycycline in drinking water
Assay type: in vivo
Conditions: doxycycline 25 μg/ml in drinking water, up to 60 days
Method: 6-8-Week old nude mice (BalbC/Nu) were injected subcutaneously with equivalent number of parental RCJ or L8 cells or FGFR3 expressing cell lines and were followed for tumor formation for up to 60 days after injections. Inhibition of FGFR expression in vivo was done by adding 25 μg/ml doxycycline into the drinking water of mice which had previously received the RCJ cell clones by injection. Nude mice were injected subcutaneously with equivalent numbers of parental RCJ cells (FIGS. 9 A-C, C2, squares) or wild type or mutant FGFR3 expressing RCJ cell lines (W11, circles in FIG. 9A, M15, triangles in FIG. 9A, W2, triangles in FIG. 9B, M16, circles in FIG. 9B) and tumor surface areas were evaluated for up to 60 days after injection (ordinates). […] Triangles, C2 (control) clone plus doxycycline, circles, W11 clone, filled squares, W11 clone plus doxycycline Doxycycline was used in animals because the former is a potent high affinity derivative of tetracycline. […] The inhibition of tumor formation of RCJ cells was highly correlated with the expression levels of FGFR3. In order to determine whether inhibition of tumor formation reflects the expression level of FGFR3, we have performed an assay where we tried to suppress the expression of FGFR3 in vivo by the addition of doxycycline to the drinking water of injected mice.

C[C@H]1c2cccc(O)c2C(=O)C2=C(O)[C@]3(O)C(=O)C(C(N)=O)=C(O)[C@@H](N(C)C)[C@@H]3[C@@H](O)[C@@H]21 [doxycycline]
effect on tumor formation, mice injected with the parental RCJ line (C2): no significant effect
